Drawing on ChEMBL document CHEMBL3243945, “Antiinflammatory activity of isomeric phenylnaphthaleneacetic acids” (J Med Chem, 1977), this text covers minimal effective dose and pKa for 16 compounds.

The test system of data set [1] is Cavia porcellus. As to the kind of experiment: Antiinflammatory activity in depilated albino guinea pig assessed as suppression of UV radiation-induced skin erythema compound administered via gavage measured 2 hrs after UV irradiation exposure. The class given is functional. The following applies: light or radiation study, po, read-out: MED.
The nature of data set [2]: Dissociation constant, pKa of the compound in DMF-H2O (6.7% v/v) by titration method. The class given is physicochemical.

Where only a bound is given, the exact number is not on record here.

Regarding `O=C(O)Cc1cccc2c(-c3ccccc3)cccc12`, in data set [1], the minimal effective dose was 0.1 mg/kg. Besides, the pKa in data set [2] stood at 6.7.
For `O=C(O)Cc1c(-c2ccccc2)ccc2ccccc12`, in that order: greater than 50 mg/kg and 6.9.
The like results for `O=C(O)Cc1cc(-c2ccccc2)cc2ccccc12` were, in that order, 50 mg/kg and 6.7.
For the compound `O=C(O)Cc1ccc(-c2ccccc2)c2ccccc12`, the minimal effective dose in data set [1] amounted to 0.1 mg/kg. In data set [2], this compound yielded a pKa of 6.8.
The like results for `O=C(O)Cc1cccc2cc(-c3ccccc3)ccc12` were, in that order, 25 mg/kg and 6.9.
For the compound `O=C(O)Cc1cccc2ccc(-c3ccccc3)cc12`, the minimal effective dose in data set [1] is 100 mg/kg. This compound displayed a pKa in data set [2] of 6.9.
As to `O=C(O)Cc1ccc2ccccc2c1-c1ccccc1`, the minimal effective dose in data set [1] was greater than 200 mg/kg. Moreover, the pKa in data set [2] is 7.2.
The like results for `O=C(O)Cc1cc2ccccc2cc1-c1ccccc1` were, in that order, greater than 200 mg/kg and 7.1.
For `O=C(O)Cc1cc(-c2ccccc2)c2ccccc2c1`, in that order: 100 mg/kg and 7.
The like results for `O=C(O)Cc1ccc2c(-c3ccccc3)cccc2c1` were, in that order, 3.1 mg/kg and 6.6.
On to `O=C(O)Cc1ccc2cc(-c3ccccc3)ccc2c1`, for which, in data set [1], the minimal effective dose turned out to be 3.1 mg/kg. In addition, the pKa in data set [2] came out at 6.6.
For `O=C(O)Cc1ccc2ccc(-c3ccccc3)cc2c1`, in that order: greater than 50 mg/kg and 6.7.
With `O=C(O)Cc1ccc2cccc(-c3ccccc3)c2c1`, the minimal effective dose in data set [1] is greater than 100 mg/kg. In data set [2], this compound displayed a pKa of 6.8.
In the case of `COc1ccc2c(c1)c(CC(=O)O)c(C)n2C(=O)c1ccc(Cl)cc1` [INDOMETHACIN], the minimal effective dose in data set [1] is 1.7 mg/kg.
Take `Cc1ccc(Cl)c(Nc2ccccc2C(=O)O)c1Cl` [MECLOFENAMIC ACID]: the minimal effective dose in data set [1] stood at 0.4 mg/kg.
On the same count and under the same terms, then `CCCCC1C(=O)N(c2ccccc2)N(c2ccccc2)C1=O` [PHENYLBUTAZONE], with 5.3 mg/kg.
